The target of one experiment is T1, LSD1 (Homo sapiens, UniProt O60341).
T1 construct: LSD1 activity determined in a cell-based assay as described herein; endogenous in cells
Briefly: LSD1 activity (LSD1 IC50, Table 7, FIG. 2). Type of experiment: cell-based. How it is done: For a typical deacetylation assay, 1 μg rHDAC1 or 1 μg immunoprecipitated endogenous HDAC1-protein A complexes (from two 10-cm dishes) was incubated with 0.4 μg H4K16ac peptide in the presence or absence of 50 μM CBB1007 or 2 μM MS-275 at 30° C. for 1 h. The percentages of deacetylated products were analyzed by mass spectrometry, and the data were analyzed by GraphPad Prism (version 5) software. The reaction products were analyzed by mass spectrometry to separate the peptide substrate (H4K16ac) and the product (H4K16), as previously described (Wang, J., et al. (2011) Cancer Research 71, 7238-7249). For a typical demethylation assay, 0.4 μg H3K4me2 substrate peptide was incubated individually with 1 μg recombinant LSD1 (rLSD1) or 1 μg immunoprecipitated LSD1-protein A complex in the presence or absence of 50 μM CBB1007 or 2 μM MS-275 at 30° C. for 1 h. The reaction products were analyzed by mass spectrometry to separate the products (H3K4me1 and H3K4) from the substrate (H3K4me2), as previously described (Wang, J., et al. (2011) Cancer Research 71, 7238-7249).
Table 7 below lists specific compounds and LSD1 activity determined in a cell-based assay as described herein (see also FIGS. 2A and 2B).

Experiment [1] has as its system PA-1 cells. The experiment can be described thus: Cell growth/viability (MTT, microscopy). Type of experiment: cell-based, human. How it is done: (§1) Lung, breast, ovarian, and other carcinoma cells were either obtained from American Type Culture Collection (ATCC) or from the DTP and DCTD Tumor Repository of National Cancer Institute (the NCI-60 cancer cell line panel), operated by Charles River Laboratory, Inc., as listed in Table 1. They were cultured according to instructions and treated with various concentrations of LSD1 inhibitors for 30-36 hours for mRNA analysis by quantitative real time RT-PCR or for 30-48 hours for protein analysis and the cell viability assays using Western blotting or microscopy and MTT assays as described previously (Wang, J., et al. (2011) Cancer Research 71, 7238-7249).
(§2) Alternatively, cell viability assays were conducted as previously described (Wang, J., et al. (2011) Cancer Research 71, 7238-7249). For the MTT assay, cells were seeded onto 96-well culture plates with a density of 2000-5000 cells/well, and incubated with CBB1003 or CBB1007 at various concentrations from 1 to 100 μM for 30-48 hours, depending cell growth rate. Dimethylsulfoxide (DMSO) was used as a solvent control. MTT was added to a final concentration of 0.5 mg/mL and cells were re-incubated for 4 hours. After removing the medium, 200 μL DMSO was added to dissolve formazan, followed by incubation for 10 minutes, and absorbance was measured at 490 nm by a Bio Red microplate reader. All assays were performed in triplicates for each concentration. The cell viability rate was calculated as the relative percentage of MTT absorption as follows: % cell viability=(mean experimental absorbance/mean control absorbance)×100.
(§3) Table 8 below lists activity of CBB3001 (compound 10) in Sox2-negative (ES-2) and Sox2-expressing (PA-1 and T47D) cancer cells determined in a cell-based assay as described herein (see also FIG. 3A-C).

The next experiment relates to T47D cells. The experiment can be described thus: Cell growth/viability (MTT, microscopy). It counts as cell-based. The settings on record: Homo sapiens; Sox2-expressing T47D cancer cells. How it is done: as §1
(§4) Alternatively, cell viability assays were conducted as previously described (Wang, J., et al. (2011) Cancer Research 71, 7238-7249). […] After removing the medium, 200 μL DMSO was added to dissolve formazan, followed by incubation for 10 minutes, and absorbance was measured at 490 nm by a Bio Red microplate reader. […] The cell viability rate was calculated as the relative percentage of MTT absorption as follows: % cell viability=(mean experimental absorbance/mean control absorbance)×100.
as §3

The subject of the next experiment is ES-2 cells. Briefly: Cell growth/viability (MTT, microscopy). Type of experiment: cell-based, human. The protocol: as §1
Alternatively, cell viability assays were conducted as previously described (Wang, J., et al. (2011) Cancer Research 71, 7238-7249). […] Dimethylsulfoxide (DMSO) was used as a solvent control. MTT was added to a final concentration of 0.5 mg/mL and cells were re-incubated for 4 hours. After removing the medium, 200 μL DMSO was added to dissolve formazan, followed by incubation for 10 minutes, and absorbance was measured at 490 nm by a Bio Red microplate reader. All assays were performed in triplicates for each concentration. The cell viability rate was calculated as the relative percentage of MTT absorption as follows: % cell viability=(mean experimental absorbance/mean control absorbance)×100.
as §3

The test system of a further experiment is F9 cells. The experiment can be described thus: Cell cycle analysis by FACS in F9 cells. It counts as cell-based, mouse. Particulars: 5 μM RA for 3 days. How it is done:
(§5) The fluorescence-activated cell sorting (FACS) and 3-(4,5-dimethyl-2-thiazolyl)-2,5-diphenyl-2H-tetrazolium bromide (MTT) assays were conducted as described previously (Lan, R., et al. (2012) Lab. Invest. 92, 1503-1514). To synchronize PA-1 and F9 cells at the G1/S phase transition, cells were treated with 2.5 mM thymidine for 12 h, released into fresh medium for 6 h, and blocked again with 2.5 mM thymidine for an additional 12 h. The cell cycle arrest was analyzed by FACS. For differentiation, F9 and PA-1 cells were seeded in 6-well plates at a density of 1×10^4 cells per well and supplemented with 5 μM RA for 3 days. Cells were then recultured in fresh medium without RA for another 2 days, and the cell cycle was analyzed on a BD FACSCalibur cell sorter using the CellQuest program (Becton, Dickinson, Mountain View, Calif.). The percentages of cells in G1, S, and G2/M phases were determined by the use of ModFit LT software.

Experiment [2] has as its system OCT4, SOX2, FOXA2, BMP2. Briefly: Expression of pluripotency and differentiation genes in F9 cells. It counts as cell-based, mouse.
Procedure: (§8) Alternatively, total RNA was extracted with the TRIzol reagent (Invitrogen), and cDNA was generated using a cloned avian myeloblastosis virus first-strand cDNA synthesis kit (TaKaRa). The mRNA levels of the target genes were quantified by realtime PCR using SYBR green (TaKaRa) in an ABI Prism 7300 real-time PCR system (Applied Biosystems). […] To synchronize PA-1 and F9 cells at the G1/S phase transition, cells were treated with 2.5 mM thymidine for 12 h, released into fresh medium for 6 h, and blocked again with 2.5 mM thymidine for an additional 12 h. The cell cycle arrest was analyzed by FACS. For differentiation, F9 and PA-1 cells were seeded in 6-well plates at a density of 1×10^4 cells per well and supplemented with 5 μM RA for 3 days. Cells were then recultured in fresh medium without RA for another 2 days, and the cell cycle was analyzed on a BD FACSCalibur cell sorter using the CellQuest program (Becton, Dickinson, Mountain View, Calif.). The percentages of cells in G1, S, and G2/M phases were determined by the use of ModFit LT software.
For experiment [3], the system named is PA-1 cells. Briefly: Cell cycle analysis by FACS in PA-1 cells. It counts as cell-based, human. The settings on record: 5 μM RA for 3 days. The protocol:
as §5

In experiment [4] the test system is OCT4, SOX2, FOXA2, BMP2. Briefly: Expression of pluripotency and differentiation genes in PA-1 cells. Type of experiment: cell-based, human.
Procedure: as §8
In experiment [5] the test system is TP63 and KRT6A. Briefly: TP63 and KRT6A mRNA by real-time RT-PCR in A549 cells. Type of experiment: cell-based, human. The settings on record: 50 μM, 30 hours. The protocol: (§6) Total RNA was extracted using TRIZOL reagent (TaKaRa) and complementary DNA was generated according to instructions in the PrimeScript 1st strand cDNA Synthesis Kit (TaKaRa) as described previously (Wang, J., et al. (2011) Cancer Research 71, 7238-7249). The cDNAs were diluted to 1/20 and 1 μL of each diluted sample was used as template for each sample. Real-time quantitative PCR was performed on an ABI Prism 7300 sequence detection system (Applied Biosystems) using SYBR Green (TaKaRa) according to the manufacturer's instructions. PCR amplification of the housekeeping gene β-Actin was performed as a control. Experiments for specific silencing or induction of gene expression were repeated at least three times. The real-time PCR primers of human genes are described in Table 3 above.
(§7) Left panels: lung carcinoma NCI-H520, A549, and H1299 cells were either treated with 50 μM CBB1003 for 30 hours or were transfected with Luc, LSD1, or Sox2 specific siRNAs for 48 hours as indicated. […] The statistical differences between experimental and control groups were analyzed by one-way ANOVA (*: p<0.05 and **: p<0.01). Right panels: the ablation efficiency of LSD1 and Sox2 siRNAs was examined.
A general note: In qPCR the cycle at which signal appears reflects the starting amount.

The test system of the next experiment is Sox2. The experiment can be described thus: Sox2 protein level by western blotting in carcinoma cells. It counts as cell-based, human. The settings on record: indicated carcinoma cells, 30 hr. Also on record: dose or concentration left out as unconfirmed. From the text:
Log-phase growing cancer cells were directly lysed in a buffer containing 0.5% SDS. Proteins in the lysates were equalized and analyzed by Western blotting using antibodies against Sox2, LSD1, H3K4Me1, H3K4Me2, Oct4, and other proteins as described previously or in the figure descriptions (Wang, J., et al. (2011) Cancer Research 71, 7238-7249). For immunohistochemical staining, rabbit monoclonal anti-LSD1 (clone C69G12, cat. #2184) and anti-Sox2 (clone D6D9, cat. #3579) antibodies were obtained from Cell Signaling. Rabbit anti-Sox2 polyclonal antibodies were raised using the purified GST-Sox2 fusion protein as the antigen.
Referring to FIG. 11A, inactivation of LSD1 by LSD1 inhibitors or siRNAs caused the downregulation of Sox2. The indicated carcinoma cells were treated with […] of the LSD1 inhibitors CBB1007 and CBB1003 for 30 hr or with 50 nM of Luc or LSD1 siRNAs for 60 hr. The protein levels of LSD1, Sox2, Lin28, CUL1, and histone H3 were analyzed by western blotting.
Background: In western blotting, separated proteins are transferred to a membrane and probed.

The next experiment concerns BT-549 cells. Briefly: Cell growth/viability (MTT, microscopy). Type of experiment: cell-based, human. Particulars: BT549 cells, 50 μM, 30 hours. How it is done:
as §1, §2

A further experiment has as its system SK-BR-3 cells. Briefly: Cell growth/viability (MTT, microscopy). It counts as cell-based, human. Particulars: 50 μM, 30 hours. The protocol: as §1, §2
In a further experiment the test system is IGROV-1 cells. The experiment can be described thus: Cell growth/viability (MTT, microscopy). Type of experiment: cell-based, human. Particulars: 50 μM, 30 hours. The protocol:
as §1, §2

Another experiment has as its system HS38.T cells. Briefly: Cell growth/viability (MTT, microscopy). Particulars: 50 μM, 30 hours. It counts as cell-based, human. The protocol: as §1, §2
The test system of the next experiment is SKOV-3 cells. The experiment can be described thus: Cell growth/viability (MTT, microscopy). Particulars: 50 μM, 30 hours. Type of experiment: cell-based, human. The protocol: as §1, §2
In a further experiment the test system is MCF7 cells. Briefly: Cell growth/viability (MTT, microscopy). The settings on record: 50 μM, 30 hours. Type of experiment: cell-based, human. How it is done: as §1, §2
For experiment [6], the system named is TP63 and KRT6A. The experiment can be described thus: TP63 and KRT6A mRNA by real-time RT-PCR in NCI-H520 cells. The settings on record: 50 μM, 30 hours. Type of experiment: cell-based, human. The protocol:
as §6, §7

In the next experiment the test system is G401 cells. Briefly: Cell growth/viability (MTT, microscopy). It counts as cell-based, human. Particulars: 50 μM, 30 hours. How it is done:
as §1, §4
Referring to FIG. 10B, Sox2-expressing myelogenous leukemia and rhabdoid tumor cells were also sensitive to LSD1 inhibitors. […] The statistical differences between compound treated and control groups were analyzed by One-way ANOVA. *: p<0.05 and **: p<0.01.

As a reminder, the IC50 is the midpoint of a concentration-inhibition curve. Regarding `CC(C)(C)OC(=O)N[C@@H]1C[C@H]1c1ccc(OC(=O)OC(C)(C)C)cc1` [Compound 10, Tert-Butyl ((1R,2S)-2-(4-((Tert-Butoxycarbonyl)Oxy)Phenyl)Cyclopropyl)Carbamate], the IC50 against LSD1 is 21.2 µM; in the experiment with PA-1 cells [1] (Homo sapiens, Sox2-expressing PA-1 cancer cells), 15.2 µM; in the experiment on T47D cells, 22.1 µM; in the experiment with ES-2 cells (Homo sapiens, Sox2-negative ES-2 cancer cells), 310 µM.
With `CC1=C(/C=C/C(C)=C/C=C/C(C)=C/C(=O)O)C(C)(C)CCC1` [RA, all-trans-retinoic acid], the cell cycle effect entry in the experiment with F9 cells and in the experiment on PA-1 cells [3] was “G1 cell cycle arrest” throughout. The “OCT4 and SOX2 levels” value with OCT4, SOX2, FOXA2, BMP2 [2] is given as “reduction”; in the experiment with OCT4, SOX2, FOXA2, BMP2 [4], “reduction”. The “genes for differentiation, such as FOXA2 and BMP2” value in the experiment on OCT4, SOX2, FOXA2, BMP2 [2] is “induction”; with OCT4, SOX2, FOXA2, BMP2 [4], “induction”.
In the case of `N=C(N)c1ccc(C(=O)N2CCN(C(=O)c3cc(CN4CCN(C(=N)N)CC4)cc([N+](=O)[O-])c3)CC2)cc1` [CBB1003], the “mRNA levels of TP63 and KRT6A” value is reported as “down-regulated” in the experiment with TP63 and KRT6A [5]; “down-regulated” in the experiment on TP63 and KRT6A [6]. Moreover, the cell growth entry in the experiment on PA-1 cells [1] (PA-1 cells, 50 μM, 30 hours) is recorded as “sensitive”; with BT-549 cells, “not sensitive”; in the experiment with SK-BR-3 cells it was “not sensitive”; in the experiment on IGROV-1 cells, “sensitive”; with HS38.T cells, “not sensitive”; in the experiment on SKOV-3 cells, “sensitive”. The cell growth result with MCF7 cells was “sensitive”; with G401 cells, “inhibited”; in the experiment with ES-2 cells (ES-2 cells, 50 μM, 30 hours) it was “not sensitive”. For the same compound, in the experiment with Sox2, the Sox2 protein level result was “downregulation”.

(Values after patent US9918983B2, “Suicidal LSD1 inhibitors targeting SOX2-expressing cancer cells” (THE BOARD OF REGENTS OF THE NEVADA SYSTEM OF HIGHER …, priority 2013, dated 2018).)
